Assay results reported in publication PMC5589570, “The antigenic identity of human class I MHC phosphopeptides is critically dependent upon phosphorylation status” (Oncotarget, 2017).
Like-named read-outs stand apart in the source and are kept apart here. Square brackets hold non-standard residues; d marks the D form. Ends that are not written are not given here. Peptide text beside a SMILES is read from it. pS = N[C@@H](COP(=O)(O)O)C(=O)O

Assays:
HLA-A2 [1] = molecular target: T1, HLA-A2 (Homo sapiens, UniProt P04439, D140Y/D185E/D98H/E176V/E277Q/G131W/G231S/I119V/I121R/I166T/I218V/L300P/L318F/N151K/N90K/P208A/P217A/Q86G/Q94H/R138H/R169H/T345S); test: Competitive peptide-MHC affinity assay (displacement of radiolabeled peptide); conditions: competitive binding, IC50 of displacement of radiolabeled peptide taken as approximation of Kd; 100,000-fold concentration range, each concentration in triplicate; W6/32 capture; read-out: Kd (pMHC affinity for HLA-A2)
T1 construct: made in house
Method: HLA-A2 heavy chain was expressed in E. coli, refolded with β2M and the peptide […], and purified as described above. Competitive peptide binding assays were carried out as described. Test peptide concentrations covered a 100,000-fold range, with each concentration assayed in triplicate. MHC-peptide complexes were captured on microplates coated with monoclonal antibody W6/32 (to human HLA) and washed, and radioactivity quantified with a microscintillation counter. The concentration of test peptide that displaced 50% of the radiolabeled peptide (IC50) was calculated. In these conditions (in which the concentration of the label is less than the concentration of MHC and the IC50 is greater than or equal to the concentration of MHC), the IC50 is a reasonable approximation of the dissociation constant.

TCRpCDC25b = test: SPR (BIAcore) TCR/peptide-MHC binding, HLA-A2-peptide complex injected over immobilised TCR; design: species or system mice; conditions: for specific binding of HLA-A2-peptide complex to immobilised TCRpCDC25b: responses compared with control surfaces (LDN5 and streptavidin), Figure 7A
Excerpt: Having established that phosphorylation has diverse effects on epitope structure, we aimed to test whether a phosphorylated epitope could be distinguished from its unmodified counterpart by the TCR. We previously generated phosphopeptide-specific CD8^+ T cells by immunising mice expressing a transgenic recombinant HLA-A*0201 molecule (AAD) with activated bone-marrow-derived dendritic cells pulsed with synthetic phosphopeptides corresponding to those naturally presented on the surface of human tumour cell lines. Despite the ability to isolate functional phosphopeptide specific T-cells, attempts to generate clonal populations of RQA_V specific T-cells for TCR isolation or produce soluble TCRs of sufficient quality from T-cell clones specific for PKD and RQI were unsuccessful. However we were able to generate soluble TCR (termed TCRpCDC25b) using cDNA sequences isolated from a T cell clone that recognised a phosphopeptide epitope derived from the CDC25b protein (GLLGpSPVRA, subsequently termed GLLGpS) of sufficient quality for surface plasmon resonance analysis.
To investigate if recognition was dependent on the GLLGS amino acid sequence, we also tested binding of immobilised TCRpCDC25b to HLA-A2 containing a different phosphopeptide featuring a p-Ser at position 5 (SLLTpSPPKA (termed SLLTpS) derived from Thyroid hormone receptor interacting protein 12). […] We then measured the strength of TCRpCDC25b phosphopeptide recognition by equilibrium affinity analysis, repeating injections of HLA-A2-GLLGpS over a range of concentrations (Figure 7B). […] In both orientations, the presence of low-level protein aggregates was evident at higher concentrations.
Experiments utilised a BIAcore 3000 and HBS-EP buffer, at a flow rate of 10 μl.min^−1. For HLA-peptide injections, recombinant TCRs were produced in the Drosophila expression system incorporating C-terminal biotinylation tags, biotinylated in vitro using BirA, and immobilised to streptavidin-coated CM5 surfaces. […] Data were analysed using BIAevaluation 3.1 and Origin graphing software.

HLA-A2 [2] = molecular target: T1, HLA-A2; design: method as in PMID 18836451; conditions: binding of peptide to HLA-A2, modified vs unmodified form; read-out: Kd (pMHC affinity for HLA-A2); cited from earlier work

Compound	Kd (HLA-A2 [1])	further results
CC[C@H](C)[C@H](NC(=O)[C@H](CO)NC(=O)[C@H](C)NC(=O)[C@H](CCC(N)=O)NC(=O)[C@@H](N)CCCNC(=N)N)C(=O)N[C@@H](CCC(=O)O)C(=O)N[C@@H](CC(C)C)C(=O)N1CCC[C@H]1C(=O)N[C@@H](CO)C(=O)N[C@@H](CCSC)C(=O)N[C@@H](C)C(=O)N[C@H](C(=O)O)C(C)C [RQA_Vnp]	26 nM	–
GLLGpSPVRA	–	specific binding of HLA-A2-peptide complex to immobilised TCRpCDC25b (TCRpCDC25b): specific binding; Kd (TCRpCDC25b; two independent equilibrium analyses, once in either orientation, Scatchard analyses and hyperbolic fitting, read-out: Kd values from both orientations (range)): 35000 to 41000 nM
RQApSLSISV [PKD2p, canonical phosphopeptide antigen derived from Protein Kinase D2]	–	Kd (HLA-A2 [2]): 38.5 nM
SLLTpSPPKA [reference compound]	–	specific binding of HLA-A2-peptide complex to immobilised TCRpCDC25b (TCRpCDC25b): identical responses over TCRpCDC25b and control surfaces

Further lines, with some results ahead:

Kd (HLA-A2 [1])	Compound	further results
60 nM	CC[C@H](C)[C@H](NC(=O)[C@H](COP(=O)(O)O)NC(=O)[C@H](C)NC(=O)[C@H](CCC(N)=O)NC(=O)[C@@H](N)CCCNC(=N)N)C(=O)N[C@@H](CCC(=O)O)C(=O)N[C@@H](CC(C)C)C(=O)N1CCC[C@H]1C(=O)N[C@@H](CO)C(=O)N[C@@H](CCSC)C(=O)N[C@@H](C)C(=O)N[C@H](C(=O)O)C(C)C [RQA_Vp]	–
25.5 nM	CC[C@H](C)[C@H](NC(=O)[C@H](CCC(N)=O)NC(=O)[C@@H](N)CCCNC(=N)N)C(=O)N[C@@H](COP(=O)(O)O)C(=O)N[C@@H](CCC(N)=O)C(=O)N[C@@H](CC(=O)O)C(=O)N[C@H](C(=O)N[C@@H](CCCCN)C(=O)N[C@@H](CC(C)C)C(=O)O)C(C)C [RQIp] (H-RQI[pS]QDVKL-OH)	–
1920 nM	RQISQDVKL [RQInp]	–
